≈ marks a conversion by molar mass, not a printed value. Like-named read-outs stand apart in the source and are kept apart here. Each block holds one compound with its values, some of them ahead of it.
Experiments:
[1] = in vivo; cited from earlier work
[2] = Pharmacokinetics by oral in monkey (urine drug concentration-time curve); assay type: in vivo; conditions: monkey (n = 6), 3 mg/kg in Table 4, 5 mg/kg in text
Experimental: Chromatographic conditions and the system applies: with C18 chromatographic column (acid the tall secretory effect, 5 μm, 4.6*150 mm), in acetonitrile-methanol-water-mesylate (25:20:55:0.15) as mobile phase, detection UV 283 nm, the velocity 1 ml/min, and the sample volume 20 μl. The theoretical plate number is not less than 2000 according to CH-j peak.
Sample solution: after the macaques were drugged, the catheter was inserted. The urine by oral CH-j 5 mg/kg is collected, added the methanol at 1:4 (v:v), centrifuge and remove the liquid to measure. Control solution is CH-j methanol solution 5 μg/ml. The log P of CH-j is larger, the fat solubility strong, and absorption distribution in the body very rapid, the urine drug concentration-time curve consistent with the typical two-compartment model. Tmax1, 1.3 h, Cmax1 is […]. […] The apparent distribution volume (Vd) 42 L, mainly distributed in body fluid (BA-j Vd 12.6 L, mainly distributed in blood. See Fitoterapia, 2015, 107: 36-34)
FIG. 5: The concentration of urine drug concentration-time curve in monkey (n=6) by CH-j oral 5 mg/kg, X-coordinate is oral CH-j time (h) and Y-coordinate is the concentration of CH-j (μM).

[3] = oral, liver first pass effect; cited from earlier work
BGC-823 = test: Anti-cancer cells proliferation activity (MTT, 48 h); assay type: cell-based; conditions: Homo sapiens, BGC-823, MTT
Experimental: (§1) Anti-cancer cells proliferationactivity of in vitro CH-j and CH-f were shown in TABLE 2 for the results of the screening of 5 cancers cells.
FIG. 2: The initial screening results of the anticancer activity of BGC-823 (MTT, for 48 h), and X-coordinate is the drug concentration (MTT, for 48 h), and Y-coordinate the cell survival rate (%) in vitro.

[4] = system: 5 cancers cells (MCF-7, H-460, BGC-823, PC-3, Hep G2); test: Anti-cancer cells proliferation activity, average of 5 cancer cells; assay type: cell-based; conditions: for IC50: average of 5 cancer cells
Source text: as §1

[5] = Solubility in Octanol, water and pH media; assay type: physicochemical
Experimental: (§2) The solubility and log P of acetyl ChrysinMannich base derivatives see TABLE 1.
(§3) CH-j is pKa 5.3, log P 1.63 in Octanol/Water at 37° C. […] (BA-j 77m/ml). CH-j belongs to BCS II (low solubility, high permeability) and solubility presents the pH dependence. […] CH-j is a pH dependent fast release. […] It is speculated that CH-j has more appropriate log P and solubility with more likely entering tissue cells than others solubility acetyl Chrysin Mannich base derivatives.
(§4) (about 20 times BA-f 277 μg/ml) and 564 μg/ml in water at 37° C. (about 1000 times BA-f 0.53m/ml). CH-f is BCS I (high solubility and permeability) and solubility presents the pH dependence. It is speculated that CH-f has more appropriate log P and solubility with entering systemic (blood system and tissue cells) than others solubility acetyl Chrysin Mannich base derivatives.

pKa = assay type: physicochemical
Experimental: as §3, §4

log P in Octanol/Water = assay type: physicochemical; conditions: octanol/water, Octanol/Water at 37° C.
Experimental: as §2, §3, §4

[6] = BA-j, see Fitoterapia, 2015; cited from earlier work
CDK1 = CDK1 (Homo sapiens, UniProt P06493); test: CDK1 inhibition activity; assay type: biochemical; conditions: for CDK1 50% inhibitory concentration: read-out: inhibiting CDK1 CC50
Chain of CDK1 (P06493 whole entry, species assumed): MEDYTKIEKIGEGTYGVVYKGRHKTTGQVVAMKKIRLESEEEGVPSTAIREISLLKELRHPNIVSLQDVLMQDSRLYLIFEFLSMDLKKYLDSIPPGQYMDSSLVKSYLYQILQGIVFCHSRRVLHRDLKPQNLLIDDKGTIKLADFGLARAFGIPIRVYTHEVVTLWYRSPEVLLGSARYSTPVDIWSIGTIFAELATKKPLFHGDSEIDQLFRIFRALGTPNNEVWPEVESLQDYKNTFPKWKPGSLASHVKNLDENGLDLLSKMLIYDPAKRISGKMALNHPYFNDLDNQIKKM
Chain of CDK1 (P14635 whole entry partner, species assumed): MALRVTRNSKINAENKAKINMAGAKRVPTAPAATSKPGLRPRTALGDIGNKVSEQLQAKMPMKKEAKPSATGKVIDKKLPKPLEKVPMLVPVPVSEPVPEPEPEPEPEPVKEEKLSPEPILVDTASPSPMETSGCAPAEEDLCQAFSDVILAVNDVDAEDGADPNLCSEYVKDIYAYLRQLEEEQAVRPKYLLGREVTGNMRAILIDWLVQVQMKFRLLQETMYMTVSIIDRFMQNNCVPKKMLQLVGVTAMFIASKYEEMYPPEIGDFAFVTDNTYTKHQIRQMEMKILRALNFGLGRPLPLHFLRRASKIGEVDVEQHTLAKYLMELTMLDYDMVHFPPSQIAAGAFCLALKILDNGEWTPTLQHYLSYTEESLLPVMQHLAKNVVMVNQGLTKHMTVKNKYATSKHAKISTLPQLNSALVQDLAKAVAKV

[7] = system: PBMCs, activated lymphocytes, human normal Liver cells; test: H2O2 level in blood and normal cells, PF1-H2O2 fluorescent probe; assay type: cell-based; conditions: CH-j: PBMCs and activated lymphocytes; BA-j: activated lymphocyte
Experimental: The cells are cancer cells (MCF-7, GBC-823, Hep G2) and normal cells (Liver, COS-7, PBMCs). According to the literature [Scientific Reports, 2015, 5: 13626; Anti-cancer Agents in Medicinal Chemistry, 2016, 16: 914-924.], in vitro cultured cells was given to CH-j 25 μM for 3.5 h, added PF1-H2O2 selective fluorescence probe 10 μM for 0.5 h and detected the concentration of H2O2 in cells, and performed fluorescence imaging by results shown in FIG. 1.
FIG. 1-3, FIG. 1-4, The fluorescence imaging by PF1-H2O2 10 μM is that CH-j […] for 4 h affected the level of H2O2 in MCF-7, GBC-823, Hep G2 and Liver.
FIG. 1-3: CH-j/BA-j affects the levels of H2O2 in blood cells, X-coordinate is the concentration of CH-j/BA-j concentration (μM), and Y-coordinate the intracellular levels of H2O2 (μM) for 4 h with PF1-H2O2 10 μM by Fluorescence Microplater Reader (488 nm/525 nm).

[8] = Tissue distribution in rat, 2 h; assay type: in vivo; conditions: rat
Experimental: The distribution results of CH-j tissue distribution were shown in FIG. 6, when CH-j 100 mg/kg rat by venous intravenous (i.v.) or oral (p.o.) 2 h. […] CH-j by oral in the stomach concentration of the large, about 2 time higher than other tissues. […] Compared with the intravenous administration, the oral administration was completely absorbed and the bioavailability was close to 100%.
FIG. 6: 2 h distribution of the drug (100 mg/kg) by CH-j rats: Y-coordinate is the concentration of CH-j (μg/g), by intravenous (i.v.), by oral (p.o.).

MCF-7 [9] = test: Autophagy in MCF-7; assay type: cell-based; conditions: 50 μM for 9 h and 24 h
PC-3 = test: Anti-cancer cells proliferation activity (MTT, 48 h); assay type: cell-based; conditions: Homo sapiens, PC-3, MTT
Source text: as §1

H-460 = test: as above; assay type: cell-based; conditions: Homo sapiens, NCI-H460, H-460, MTT
Source text: as §1

Hep G2 = test: as above; assay type: cell-based; conditions: Homo sapiens, HepG2
Source text: as §1

MCF-7 [10] = test: as above; assay type: cell-based; conditions: Homo sapiens, MCF7, MCF-7, MTT
Source text: as §1

plasma proteins = test: Protein binding rate and reversible binding rate; assay type: in vitro ADME
Experimental: (§5) The combination of drugs and plasma proteins is usually reversible, and the affinity strength is determined by the reversible binding rate of the drug-protein complex. Only free drugs can spread to the tissue through the lipid membrane. By modifying the structure of the drug, the effect of the drug on the target site can be improved by improving the reversible binding rate of the drug-protein complex.
(§6) The acidic part of polyphenol hydroxyl group is combined with lysine alkaline site in albumin structure. The protein binding rate and reversible binding rate of CH-j see TABLE 2.

[11] = Protein binding rate and reversible binding rate; assay type: in vitro ADME; conditions: plasma proteins
Experimental: as §5, §6

[12] = Pharmacokinetics by oral in monkey (urine drug concentration-time curve); assay type: in vivo; conditions: rhesus, monkey (n = 6), 3 mg/kg
MCF-7 [13] = test: Hoechst 33258 fluorescence staining, apoptosis; assay type: cell-based; conditions: 0, 5, 10, 20 μM for 24 h
Experimental: Hoechst 33258 is an active fluorescent dye with DNA specific binding, which is mainly combined with base area of DNA, which emits blue fluorescence when stimulated by ultraviolet light. The living cells emit uniform fluorescence, the apoptotic cells are bright blue fluorescence due to their chromatin fixation, dense and concentrated nuclei.
MCF-7 was treated with 0, 5, 10, 20 μM of CH-f and CH-j for 24 h, Hoechst 33258 fluorescence staining, and cell morphological changes were shown in FIG. 3-1. […] CH-f and CH-j are completely different from the cytotoxic drug HCPT, which appears to be apoptotic at low doses and necrotic at high doses in BGC-823.
FIG. 3-1 Hoechst 33258 staining results for MCF-7.

Bcl-2 = Bcl-2 expression in MCF-7; assay type: cell-based; conditions: 10 μM for 24 h
MCF-7 and COS-7 = test: NO level, Rh-NO fluorescent probe imaging; assay type: cell-based; conditions: 25 μM for 12, 24, 48 h, Rh-NO probe 5 μM
Experimental: [Organic Letters, 2008, 10: 2357-2360] […] This is because of cycloalkylamine-methyl releasing NO by Cope reaction, and the higher level of NO 4-methylpiperazine than 4-hydroxypiperidine.
FIG. 1-6: The performed fluorescence imaging with Rh—NO 5 μM, and add 25 μM of CH-j and CH-f for 12, 24, 48 h, affected the level of NO for 12, 24 and 48 h in MCF-7 and COS-7 by Single beam electron confocal fluorescence microscope (488/604 nm).

[14] = organic solvent or mixture, Octanol, 37° C., read-out: Solubility in Octanol

SMILES: CN1CC[C@H](c2c(O)cc(O)c3c(=O)cc(-c4ccccc4Cl)oc23)[C@H](O)C1 [Flavopiridol]
- Intravenous drip steady plasma concentration [1]: 0.27 µM

- V d ([2]; oral): 12.6 L
- t1/2β ([2]; oral): 4.2 h
- Tmax ([2]; rhesus, monkey, urine, po, read-out: T max (Tmax1)): 2 h
- Cmax ([2]; rhesus, urine, oral): 25.4 µM
- IC50 (BGC-823): 12.3 ± 1.73 µM
- IC50 [4]: 4.7 µg/mL
- IC50 ([4]; MTT, 48 h): 12.3 µM
- solubility [5, 14]: 377 µg/mL (≈ 983 µM)
- solubility ([5]; water, 37° C., text values of BA-j and BA-f, read-out: Solubility in water): 77 µg/mL (≈ 201 µM)
- pKa (pKa): 5.5
- logP (log P in Octanol/Water): 0.69
- IC50 (PC-3): 12.8 ± 2.06 µM
- IC50 (H-460): 13.7 ± 1.83 µM
- IC50 (Hep G2): 15.7 ± 1.3 µM
- IC50 (MCF-7 [10]): 10.6 ± 0.3 µM
- Reversie binding rate AV (plasma proteins; average of 3 concentrations): 20.1%
- Reversie binding rate (plasma proteins; drug concentration 12.5 μg/ml): 19.1%
- Reversie binding rate (plasma proteins; drug concentration 25 μg/ml): 21.0%
- Reversie binding rate (plasma proteins; drug concentration 50 μg/ml): 20.2%
- fraction unbound ([11]; average of 3 concentrations, read-out: Protein binding rate AV (converted)): 0.082
- fraction unbound at 12.5 μg/ml ([11]; drug concentration 12.5 μg/ml): 0.067
- fraction unbound at 25 μg/ml ([11]; drug concentration 25 μg/ml): 0.075
- fraction unbound at 50 μg/ml ([11]; drug concentration 50 μg/ml): 0.104
- AUC(0-inf) [12]: 71.5 µM·h
SMILES: O=c1cc(-c2ccccc2)oc2c(CN3CCC(O)CC3)c(O)c(O)c(O)c12 [BA-j, 5,6,7-trihydroxy-8-(4-hydroxy-piperidin-1-ylmethyl)-2-phenyl-chromen-4-one, reference compound]
- Glucose aldehyde acid metabolism [3]: < 5%
- V d [6]: 12.6 L
- CDK1 50% inhibitory concentration (CDK1): 300 nM
- Dose dependence of H2O2 level [7]: significant dose-dependent manner, with mass apoptosis and without necrosis
- Detection of prototype drug in blood, urine, tissues [8]: prototype drug can not be detected in the tissues
- Autophagy (MCF-7 [9]): without

- IC50 (BGC-823): 5.2 ± 1.21 µM
- IC50 [4]: 2.3 µg/mL
- IC50 ([4]; MTT, 48 h): 5.6 µM
- BCS class [5]: BCS I
- Solubility in water relative to BA-f ([5]; 37° C.): about 1000 times
- Solubility in Octanol relative to BA analogue ([5]; CH-j vs BA-j, CH-f vs BA-f, 37° C.): about 20 times
- solubility [5, 14]: 5510 µg/mL (≈ 13500 µM)
- solubility ([5]; water, 37° C., read-out: Solubility in H2O): 564 µg/mL (≈ 1380 µM)
- pKa (pKa): 4.9
- logP (log P in Octanol/Water): 0.99
- CDK1 inhibition, times stronger than BA-j (CDK1): about 2 times
- IC50 (PC-3): 5.1 ± 1.17 µM
- IC50 (H-460): 5.6 ± 1.33 µM
- IC50 (Hep G2): 6.1 ± 1.45 µM
- IC50 (MCF-7 [10]): 5.2 ± 1.24 µM
SMILES: CC(=O)c1c(O)c(CN2CCN(C)CC2)c2oc(-c3ccccc3)cc(=O)c2c1O [CH-f, 6-Acetyl-5,7-dihydroxy-8-(4-methylpiperazin-1-ylmethyl)-2-phenyl-chromen-4-one]
- Apoptosis by Hoechst 33258 staining (MCF-7 [13]): apoptosis cell percentage in dose dependent increase
- Anti-proliferative activity, times stronger than BA-j [4]: 2 times
- Anti-proliferative activity, times stronger than Chrysin [4]: 5 times
- CDK1 50% inhibitory concentration (CDK1): 130 nM
- Bcl-2 expression (Bcl-2): Bcl-2 expression can be suppressed
- Autophagy (MCF-7 [9]): can cause autophagy
- Level of NO, red fluorescence (MCF-7 and COS-7): stronger red fluorescence than CH-j in MCF-7

Reference: patent publication US10471054B2, “CDK1 inhibitors of acetyl chrysin mannich base derivatives, synthesis and use thereof” (priority 2016, dated 2019)
